From patent US20250213532A1, “5-METHOXY-N,N-[…][…] THE TREATMENT OF BIPOLAR DISORDER” (GH RESEARCH IRELAND LIMITED, priority 2022, published 2025) come the findings set out here.

A short description of this data set: Pharmacokinetics after single inhaled dose (LC-MS/MS). Type of data set: in vivo, human. How it is done:
Blood samples were obtained at 1; 2; 4; 7; 10; 15; 20; 30; 45 min and 1; 1.5; 2; 3; 4 hours after administration.
PK parameters were generated by algebraic analysis of the concentration versus time plots for each individual. The analysis was carried out using the software Phoenix WinNonlin 6.3.

Molecules are shown by their SMILES.

For `CN(C)CCc1c[nH]c2ccc(O)cc12` [bufotenine], the “Samples with bufotenine concentration above LLOQ” value (after inhaled 5-MeO-DMT, LLOQ 25 pg/ml) is listed as “Only in few samples”. For the setting “subjects receiving an uptitration scheme included”, the “Bufotenine blood concentrations under uptitration scheme vs single dose” value is given as “Substantially similar observations”.
